How the values were obtained:
hTLR8 = target: T1, hTLR8 (Homo sapiens, UniProt Q9NR97); test: HEK-Blue hTLR8 SEAP reporter agonist assay; type: cell-based
T1 construct: host or cells: HEK-Blue hTLR8 (HEK293-derived, per own knowledge)
T1 sequence (Q9NR97 27-1041): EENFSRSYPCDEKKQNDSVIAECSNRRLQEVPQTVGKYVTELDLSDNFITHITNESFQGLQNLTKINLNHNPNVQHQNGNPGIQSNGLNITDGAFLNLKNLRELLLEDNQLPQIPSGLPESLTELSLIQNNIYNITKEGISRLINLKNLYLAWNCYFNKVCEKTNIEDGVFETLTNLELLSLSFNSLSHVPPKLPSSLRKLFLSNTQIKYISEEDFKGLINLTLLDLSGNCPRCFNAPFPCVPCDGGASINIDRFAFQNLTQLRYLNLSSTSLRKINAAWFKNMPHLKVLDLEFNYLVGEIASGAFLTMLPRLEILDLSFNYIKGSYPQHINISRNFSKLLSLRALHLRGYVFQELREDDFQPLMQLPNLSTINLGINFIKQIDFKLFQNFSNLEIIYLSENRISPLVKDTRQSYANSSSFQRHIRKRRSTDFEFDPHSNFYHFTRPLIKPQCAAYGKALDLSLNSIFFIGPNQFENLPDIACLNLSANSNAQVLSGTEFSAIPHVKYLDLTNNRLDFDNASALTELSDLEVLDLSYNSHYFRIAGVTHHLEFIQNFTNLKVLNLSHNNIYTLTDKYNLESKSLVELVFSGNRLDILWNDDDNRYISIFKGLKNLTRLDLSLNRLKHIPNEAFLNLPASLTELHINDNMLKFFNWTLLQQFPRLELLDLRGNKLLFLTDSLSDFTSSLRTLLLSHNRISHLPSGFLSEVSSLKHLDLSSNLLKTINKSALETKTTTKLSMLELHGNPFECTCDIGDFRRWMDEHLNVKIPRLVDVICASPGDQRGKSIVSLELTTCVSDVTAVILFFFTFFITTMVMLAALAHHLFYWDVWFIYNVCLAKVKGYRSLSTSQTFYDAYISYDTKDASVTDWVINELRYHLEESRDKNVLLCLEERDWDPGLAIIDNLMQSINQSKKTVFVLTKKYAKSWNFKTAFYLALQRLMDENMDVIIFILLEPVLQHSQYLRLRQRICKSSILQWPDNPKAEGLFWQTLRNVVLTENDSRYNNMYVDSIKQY
Excerpt: HEK-Blue™ hTLR4, 7, 8 and 9 cell lines were purchased from InvivoGen (Hong Kong). The cells express the human TLR gene and NF-κB/AP-1-inducible SEAP (secreted embryonic alkaline phosphatase) reporter gene. SEAP levels produced upon TLR stimulation can be determined by QUANTI-Blue™. In the cell-based assay, the main reagents used were QUANTI-Blue™ (InvivoGen) and ATPlite 1 Step (Perkin Elmer). The main instruments used were the microplate reader SpectraMax 340PC (Molecular Device) and Envision (Perkin Elmer). […] The compounds were in 10 mM stock solution in DMSO and stored at − 20°C. […] DMSO was used as the negative control. […] The cells were cultured and treated with the compounds at 37°C, 5%CO2 for 24 h. After 24 h of incubation, 20 μl of the supernatant of each well was added to 180 μl of QUANTI-Blue™. The plates were incubated at 37°C for 1.5 h. After 1.5 h of incubation, the optical density was measured using the spectrophotometer at 650 nm in the microplate reader of SpectraMax 340PC. The cell viability of each well was determined using ATPlite 1 Step following the manufacturer’s instruction. The luminescence signal in each well of plates was measured in the microplate reader of Envision.

hERG = target: T2, hERG (Homo sapiens, UniProt Q12809); test: hERG assay, whole-cell recordings with automated QPatch in CHO cells; type: cell-based
T2 construct: expressed in transfected cells; host or cells: CHO
T2 sequence (Q12809 whole entry): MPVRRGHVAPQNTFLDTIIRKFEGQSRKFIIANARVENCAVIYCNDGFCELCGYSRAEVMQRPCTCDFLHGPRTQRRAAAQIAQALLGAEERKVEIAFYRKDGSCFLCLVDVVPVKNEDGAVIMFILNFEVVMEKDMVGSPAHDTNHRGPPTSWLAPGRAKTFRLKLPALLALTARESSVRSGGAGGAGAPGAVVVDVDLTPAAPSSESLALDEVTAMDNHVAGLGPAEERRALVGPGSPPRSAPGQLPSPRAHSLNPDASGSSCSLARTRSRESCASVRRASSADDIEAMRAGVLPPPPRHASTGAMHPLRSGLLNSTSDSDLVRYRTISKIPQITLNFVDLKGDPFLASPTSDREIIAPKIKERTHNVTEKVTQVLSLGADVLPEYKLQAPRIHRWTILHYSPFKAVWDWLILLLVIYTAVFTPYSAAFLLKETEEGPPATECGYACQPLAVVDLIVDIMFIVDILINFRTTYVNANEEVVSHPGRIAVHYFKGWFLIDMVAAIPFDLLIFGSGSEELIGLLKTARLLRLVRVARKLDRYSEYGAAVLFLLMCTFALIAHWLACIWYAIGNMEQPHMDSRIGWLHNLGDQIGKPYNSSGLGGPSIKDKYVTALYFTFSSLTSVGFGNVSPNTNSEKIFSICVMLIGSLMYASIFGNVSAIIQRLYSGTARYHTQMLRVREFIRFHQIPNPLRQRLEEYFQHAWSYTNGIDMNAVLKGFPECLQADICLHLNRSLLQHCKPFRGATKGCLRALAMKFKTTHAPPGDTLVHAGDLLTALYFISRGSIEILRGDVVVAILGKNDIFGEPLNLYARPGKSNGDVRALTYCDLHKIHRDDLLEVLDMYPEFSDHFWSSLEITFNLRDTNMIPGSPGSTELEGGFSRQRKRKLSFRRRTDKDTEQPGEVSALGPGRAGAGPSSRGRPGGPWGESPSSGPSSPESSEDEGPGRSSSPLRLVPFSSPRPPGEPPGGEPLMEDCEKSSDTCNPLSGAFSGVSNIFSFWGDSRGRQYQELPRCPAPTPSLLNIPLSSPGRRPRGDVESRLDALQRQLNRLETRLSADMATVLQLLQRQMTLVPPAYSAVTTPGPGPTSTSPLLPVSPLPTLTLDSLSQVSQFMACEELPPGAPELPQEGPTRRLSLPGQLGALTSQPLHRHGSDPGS
Description: hERG assay was conducted using CHO cell line stably transduced with hERG cDNA. Whole-cell recordings were performed using automated QPatch (Sophion Biosciences). Data were analyzed using Assay Software provided by Sophion (assay software V5.0), Microsoft Excel and GraphPad Prism.

in vivo = test: in vivo; design: species or system Sprague Dawley rats; settings: Sprague Dawley, rat
Description: To determine the in vivo pharmacokinetic profiles, the compounds were formulated with 11% captisol and then administered iv, ip, sc and po into Sprague Dawley rats or iv and sc into mice or cynomolgus monkeys, respectively. Blood samples were collected before dosing and 0.083 h, 0.25 h, 0.5 h, 1 h, 2 h, 4 h, 6 h, 8 h, 12 h and 24 h after dosing. Blood samples were collected in tubes containing K2EDTA. Plasma was isolated from the blood samples by centrifugation of the blood samples at 2400 × g for 5 min at 4°C. Plasma samples were measured using LC-MS/MS (Waters ACQUITY UPLC and TQ 6500+) to determine the concentration of compounds. The data was analyzed using WinNonlin 7.0 to calculate the PK parameters such as AUC0-t, AUC0-∞, MRT0-∞, Cmax, Tmax, t1/2 and F.

Question: For `CCCN(CCC)C(=O)C1=Cc2ccc(-c3ccc(C(=O)N4CCCC4)cc3)cc2N=C(N)C1` [Motolimod, motolimod], which EC50 (hTLR8; HEK-Blue hTLR8 cells, 24 h, SEAP, read-out: EC50 in hTLR8 agonist activity (TLR8 cell EC50)) is on record?
Answer: The EC50 was 109 nM.

Question: And the TLR8 selectivity (hTLR8; TLR8 over other TLR cell EC50)?
Answer: The TLR8 selectivity was 182 fold.

Question: And the IC50 (hERG)?
Answer: Its IC50 is 3.84 µM.

Question: What about the bioavailability (in vivo) of the same compound?
Answer: Its bioavailability is 57.4%.

Question: What about the Vd (in vivo; iv, 2.5 mg/kg) of the same compound?
Answer: The Vd was 18.6 L/kg.

Question: And the clearance (in vivo; iv, 2.5 mg/kg)?
Answer: Its clearance is 45.5 mL/min/kg.

Question: What about the AUC(0-inf) (in vivo; sc, 10 mg/kg) of the same compound?
Answer: Its AUC(0-inf) is 2130 ng·h/mL.

Question: And the AUC(0-t) (in vivo; sc, 10 mg/kg)?
Answer: The AUC(0-t) was 2130 ng·h/mL.

Question: What about the Cmax (in vivo; sc, 10 mg/kg) of the same compound?
Answer: The Cmax was 720 ng/mL.

Question: What about the Tmax (in vivo; sc, 10 mg/kg) of the same compound?
Answer: The Tmax was 1.17 h.

Question: What about the half-life (in vivo; sc, 10 mg/kg) of the same compound?
Answer: The half-life was 55.2 min.

Source: paper PMC8607422, “Development of a novel TLR8 agonist for cancer immunotherapy” (Molecular Biomedicine, 2020)
